# Data as given in US20220096512A1, “WATER-BASED ANTIFUNGAL COMPOSITIONS” (Sigma-Aldrich Co. LLC, priority 2019, published 2022).
# Legend:
# Aspergillus niger = assay: Diffusion disc MIC testing against Aspergillus niger; assay type: cell-based; conditions: diffusion paper disc, 10 μL applied, incubated overnight at 30° C., average of three experiments
# Protocol: (§1) Minimum inhibitory concentration (MIC) testing was determined for the inventive nystatin formulation described herein, along with comparative antifungal agents.
# (§2) Nystatin (Solid) and amphotericin were dissolved in DMF in 1 mg/mL. Econazole nitrate was dissolved in PBS to achieve 1 mg/mL. Nystatin formulation diluted with PBS to achieve the same potency as Nystatin (Solid).
# (§3) Antibiotic medium 19 was sterilized in autoclave, after sterilization when the temperature lowered to 45° C. and 1 mL from spore suspension was added. 8 mL from this mixture dispensed to each petri dish.
# (§4) On each dish 6 sterile diffusion paper disc were placed, 10 μL from each antibiotic were applied in 10, 15, 20, 25, 30, 35 μg/mL concentrations. Where MIC concentrations were below 10, lower concentrations were used: 2, 5, 7.5 μg/mL
# (§5) The petri dishes were incubated overnight at 30° C. The MIC were determined as the lower concentration that inhibition could be visualized.
# Candida albicans = assay: Diffusion disc MIC testing against Candida albicans; assay type: cell-based; conditions: diffusion paper disc, 10 μL applied, incubated overnight at 30° C., average of three experiments
# Protocol: as §1, §2, §3, §4, §5
Compound,"MIC (Aspergillus niger; Aspergillus niger, read-out: Inhibition of Aspergillus niger (MIC, lower concentration at which inhibition could be visualized)) [µg/mL]","Inhibition of Aspergillus niger (MIC, lower concentration at which inhibition could be visualized) (Aspergillus niger)","Inhibition of Candida albicans (MIC, lower concentration at which inhibition could be visualized) (Candida albicans)","Inhibition of Aspergillus niger (MIC, lower concentration at which inhibition could be visualized) (Aspergillus niger; listed as Nystatin methyl ester)"
"C[C@@H]1[C@H](O)[C@@H](C)/C=C/C=C/C=C/C=C/C=C/C=C/C=C/[C@H](O[C@@H]2O[C@H](C)[C@@H](O)[C@H](N)[C@@H]2O)C[C@@H]2O[C@](O)(C[C@@H](O)C[C@@H](O)[C@H](O)CC[C@@H](O)C[C@@H](O)CC(=O)O[C@H]1C)C[C@H](O)[C@H]2C(=O)O [Amphotericin, Amphotericin B]",31.5,,,
"Clc1ccc(COC(Cn2ccnc2)c2ccc(Cl)cc2Cl)cc1 (stereo not shown) [Econazole, Econazole nitrate]",,No inhibition,No inhibition,
C[C@@H]1[C@H](O)[C@@H](C)/C=C/C=C/CC/C=C/C=C/C=C/C=C/C(O[C@H]2O[C@H](C)[C@@H](O)[C@H](N)[C@@H]2O)CC2O[C@](O)(CC(O)C(O)CCC(O)CC(O)CC(O)CC(=O)O[C@H]1C)CC(O)C2C(=O)O (stereo partly shown) [Nystatin],,22.5 µg/mL,14 µg/mL,
Nystatin Methyl ester,,No inhibition,30 µg/mL,no observed inhibition
Polymixin B,,No inhibition,No inhibition,
